Measured values: patent US20230117034A1, “PYRAZOLOTRIAZINES” (Bayer Aktiengesellschaft, priority 2019, published 2023)

Columns and labels:
[1] = test system: CAL-120, human breast adenocarcinoma cells; assay: Proliferation assay CAL-120 (crystal violet, 4 days); type: cell-based; conditions: Homo sapiens, CAL-120, 96 h, CAL-120 cells, median, read-out: Prolif-CAL-120, IC50-[mol/l] (median)
Summary of the method: (§1)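 CAL-120 or MDA-MB-231 cells grown 24 h, then exposed 4 days to compound (0.01–10 micromol/L, 0.1% DMSO). Crystal violet staining, absorbance at 595 nm, normalised to a zero-point plate (0%) and untreated cells (100%); IC50 by 4-parameter fit.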

[2] = molecular target: T1, CDK12 (nuclear staining in CAL-120 cells) (Homo sapiens, UniProt Q9NYV4); assay: CDK12 nuclear protein level: immunofluorescence/high content analysis (CAL-120); type: cell-based; conditions: for DC50: CAL-120 cells, 24 h, immunofluorescence, 50% reduction of nuclear CDK12 staining intensity, median, read-out: CDK12 degradation IF, DC50- [mol/l] (median); for (IC50 CDK12 high ATP) to (Degradation DC50 CDK12) ratio: ratio of IC50 CDK12 high ATP kinase assay to DC50 CDK12 degradation (IF, CAL-120)
T1 construct: endogenous in cells; host or cells: CAL-120 human breast cancer cells (DSMZ ACC 459)
Summary of the method: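 CAL-120 cells were treated with compound for 24 h at 37 °C, fixed with PFA and immunostained for CDK12. Nuclear CDK12 intensity was quantified by automated image analysis and normalized to DMSO and control. DC50 is the concentration giving 50% reduction of nuclear staining.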

[3] = test system: BRCA1 mRNA expression in MDA-MB-231 cells; assay: qRT-PCR assay: BRCA1 mRNA expression in MDA-MB-231; type: cell-based, human; conditions: Homo sapiens, MDA-MB-231, Inhibition of BRCA1 mRNA expression in MDA-MB-231 cells; median; read-out: RTqPCR-MDA-MB-231, IC50, BRCA1 (median)
Summary of the method: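 MDA-MB-231 cells, 200,000/well, treated 24 h after plating with continuous 24 h compound exposure. RNA extracted, 600 ng reverse-transcribed, BRCA1 measured by RT-qPCR normalized to GAPDH.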

[4] = molecular target: T2, CYCLIN K (nuclear staining in CAL-120 cells) (Homo sapiens, UniProt O75909); assay: CYCLIN K nuclear protein level: immunofluorescence high content analysis (CAL-120); type: cell-based; conditions: 24 h, 50% reduction of nuclear CCNK staining intensity, median, read-out: CYCLIN K degradation IF, DC50-[mol/l] (median)
T2 construct: endogenous in cells; host or cells: CAL-120 human breast cancer cells (DSMZ ACC 459)
Summary of the method: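 CAL-120 breast cancer cells treated in dose-response for 24 h at 37 °C, PFA-fixed and immunostained for cyclin K with Hoechst counterstain. Confocal imaging quantified nuclear intensity; DC50 is the concentration giving 50% reduction of nuclear CCNK staining, normalized to DMSO and control.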

[5] = test system: MDA-MB-231, human breast cancer cells; assay: Proliferation assay MDA-MB-231 (crystal violet, 4 days); type: cell-based; conditions: Homo sapiens, MDA-MB-231, 96 h, MDA-MB-231 cells, median, read-out: Prolif-MDA MB-231, IC50-[mol/l] (median)
Summary of the method: as §1

T2 sequence (O75909 whole entry): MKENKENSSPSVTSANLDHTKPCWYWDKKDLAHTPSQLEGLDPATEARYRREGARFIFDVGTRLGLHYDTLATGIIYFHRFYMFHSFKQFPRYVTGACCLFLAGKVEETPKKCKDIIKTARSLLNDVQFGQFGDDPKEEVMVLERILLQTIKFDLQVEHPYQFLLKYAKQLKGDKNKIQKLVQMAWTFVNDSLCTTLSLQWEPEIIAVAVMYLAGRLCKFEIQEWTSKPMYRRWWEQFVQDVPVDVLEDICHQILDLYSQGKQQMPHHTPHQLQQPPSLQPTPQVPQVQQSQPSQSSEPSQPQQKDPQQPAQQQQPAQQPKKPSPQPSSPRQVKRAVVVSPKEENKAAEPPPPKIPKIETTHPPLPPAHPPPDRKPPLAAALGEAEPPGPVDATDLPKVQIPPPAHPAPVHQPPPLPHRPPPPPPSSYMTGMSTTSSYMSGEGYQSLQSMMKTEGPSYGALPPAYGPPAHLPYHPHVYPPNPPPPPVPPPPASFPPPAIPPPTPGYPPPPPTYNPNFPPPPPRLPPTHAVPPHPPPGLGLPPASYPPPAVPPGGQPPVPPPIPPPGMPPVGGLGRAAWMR
T2 sequence (Q9NYV4 whole entry partner): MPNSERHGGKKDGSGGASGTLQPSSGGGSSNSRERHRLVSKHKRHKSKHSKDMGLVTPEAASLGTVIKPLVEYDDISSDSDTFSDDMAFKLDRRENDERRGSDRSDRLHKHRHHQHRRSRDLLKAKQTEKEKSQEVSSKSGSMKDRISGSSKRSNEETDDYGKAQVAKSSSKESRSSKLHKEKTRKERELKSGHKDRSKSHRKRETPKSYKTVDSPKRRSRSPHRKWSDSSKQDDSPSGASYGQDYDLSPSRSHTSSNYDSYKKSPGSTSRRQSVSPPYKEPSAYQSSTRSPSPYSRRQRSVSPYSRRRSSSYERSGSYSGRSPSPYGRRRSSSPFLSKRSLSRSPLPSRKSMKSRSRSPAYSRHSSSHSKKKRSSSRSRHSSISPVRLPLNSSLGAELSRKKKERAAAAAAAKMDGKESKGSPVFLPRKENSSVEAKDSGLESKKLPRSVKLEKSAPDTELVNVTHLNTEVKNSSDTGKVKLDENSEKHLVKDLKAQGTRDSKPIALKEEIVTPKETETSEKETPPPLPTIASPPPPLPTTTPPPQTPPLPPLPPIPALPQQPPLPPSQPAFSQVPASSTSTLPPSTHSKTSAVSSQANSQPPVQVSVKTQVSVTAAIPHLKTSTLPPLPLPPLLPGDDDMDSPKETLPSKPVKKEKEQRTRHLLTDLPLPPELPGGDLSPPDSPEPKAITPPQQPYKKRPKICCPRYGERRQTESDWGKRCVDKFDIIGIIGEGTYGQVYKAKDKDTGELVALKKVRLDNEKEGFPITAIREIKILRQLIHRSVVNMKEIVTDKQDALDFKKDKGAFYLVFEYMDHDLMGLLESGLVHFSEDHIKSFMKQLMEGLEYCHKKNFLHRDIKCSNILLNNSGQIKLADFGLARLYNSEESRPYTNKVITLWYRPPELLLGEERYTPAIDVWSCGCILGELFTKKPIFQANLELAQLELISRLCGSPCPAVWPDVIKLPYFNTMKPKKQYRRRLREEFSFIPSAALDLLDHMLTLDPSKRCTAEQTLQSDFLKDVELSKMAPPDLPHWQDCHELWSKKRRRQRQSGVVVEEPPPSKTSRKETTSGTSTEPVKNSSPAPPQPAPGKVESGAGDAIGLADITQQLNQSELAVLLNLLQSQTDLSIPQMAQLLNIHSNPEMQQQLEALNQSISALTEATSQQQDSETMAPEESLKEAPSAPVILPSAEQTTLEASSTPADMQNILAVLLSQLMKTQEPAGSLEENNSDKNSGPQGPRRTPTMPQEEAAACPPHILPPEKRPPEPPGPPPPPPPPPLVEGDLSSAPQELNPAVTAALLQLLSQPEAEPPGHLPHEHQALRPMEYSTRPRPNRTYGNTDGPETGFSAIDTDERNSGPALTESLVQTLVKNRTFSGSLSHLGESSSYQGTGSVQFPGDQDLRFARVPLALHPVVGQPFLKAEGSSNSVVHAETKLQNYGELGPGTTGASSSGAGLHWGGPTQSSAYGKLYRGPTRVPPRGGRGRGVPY
T1 sequence (Q9NYV4 whole entry): as the sequence (Q9NYV4 whole entry partner) above
T1 sequence (O75909 whole entry partner): as the sequence (O75909 whole entry) above

IC50 [1]	DC50 [2]	(IC50 CDK12 high ATP) to (Degradation DC50 CDK12) ratio [2]	IC50 [3]	DC50 [4]	IC50 [5]	SMILES
9.17 nM	2.75 nM	>2815	14.6 nM	1.25 nM	83.1 nM	Fc1ccc2[nH]c(CNc3nc(N4CCOCC4)nc4c(-c5ccnnc5)cnn34)nc2c1F [Example 417, N-[(4,5-difluoro-1H-benzimidazol-2-yl)methyl]-2-(morpholin-4-yl)-8-(pyridazin-4-yl)pyrazolo[1,5-a][1,3,5]triazin-4-amine]
3.06 nM	2.51 nM	852	2.68 nM	0.545 nM	8.76 nM	Fc1ccc2[nH]c(CNc3nc(N4CCOCC4)nc4c(CC(F)F)cnn34)nc2c1F.O=C(O)C(F)(F)F [Example 425, trifluoroacetic acid N-[(4,5-difluoro-1H-benzimidazol-2-yl)methyl]-8-(2,2-difluoroethyl)-2-(morpholin-4-yl)pyrazolo[1,5-a][1,3,5]triazin-4-amine]
3.57 nM	0.751 nM	32	3.21 nM	0.511 nM	4.19 nM	Fc1ccc2[nH]c(CNc3nc(N4CCOCC4)nc4c(C(F)(F)F)cnn34)nc2c1F [Example 426, N-[(4,5-difluoro-1H-benzimidazol-2-yl)methyl]-2-(morpholin-4-yl)-8-(trifluoromethyl)pyrazolo [1,5-a][1,3,5]triazin-4-amine]
44 nM	14.7 nM	127	45 nM	9.95 nM	113 nM	FC(F)(F)c1cnn2c(NCc3nnc(-c4ccccc4)[nH]3)nc(N3CCOCC3)nc12 [Example 427, 2-(morpholin-4-yl)-N-[(5-phenyl-4H-1,2,4-triazol-3-yl)methyl]-8-(trifluoromethyl)pyrazolo[1,5-a][1,3,5]triazin-4-amine]
8.86 nM	4.32 nM	>4626	7.47 nM	3.86 nM	32.4 nM	CN1CCN(c2nc(NCc3nc4c(F)c(F)ccc4[nH]3)n3ncc(C4CC4(F)F)c3n2)CC1 (stereo not drawn) [Example 429, N-[(4,5-difluoro-1H-benzimidazol-2-yl)methyl]-8-(2,2-difluorocyclopropyl)-2-(4-methylpiperazin-1-yl)pyrazolo[1,5-a][1,3,5]triazin-4-amine]
7.02 nM	3.39 nM	829	4.17 nM	1.74 nM	28.4 nM	CCc1cnn2c(NCc3nc4ccccc4[nH]3)nc(N3CCOCC3)nc12 [Example 431, N-[(1H-benzimidazol-2-yl)methyl]-8-ethyl-2-(morpholin-4-yl)pyrazolo[1,5-a][1,3,5]triazin-4-amine]
3.66 nM	0.948 nM	2425	1.76 nM	0.353 nM	8.53 nM	CCc1cnn2c(NCc3nc4c(F)c(F)ccc4[nH]3)nc(N3CCOCC3)nc12 [Example 432, N-[(4,5-difluoro-1H-benzimidazol-2-yl)methyl]-8-ethyl-2-(morpholin-4-yl)pyrazolo[1,5-a][1,3,5]triazin-4-amine]
13.1 nM	4.32 nM	626	10.6 nM	0.441 nM	40.3 nM	CCc1cnn2c(NCc3nc4c(OC)cccc4[nH]3)nc(N3CCOCC3)nc12 [Example 433, 8-ethyl-N-[(4-methoxy-1H-benzimidazol-2-yl)methyl]-2-(morpholin-4-yl)pyrazolo[1,5-a][1,3,5]triazin-4-amine]
10.2 nM	5 nM	>3530	10.5 nM	2.06 nM	44.7 nM	CCc1cnn2c(NCc3nc4ccccc4[nH]3)nc(N3CCN(C)CC3)nc12 [Example 434, N-[(1H-benzimidazol-2-yl)methyl]-8-ethyl-2-(4-methylpiperazin-1-yl)pyrazolo[1,5-a][1,3,5] triazin-4-amine]
10.9 nM	1.76 nM	>11369	6.19 nM	2.09 nM	45.8 nM	CN1CCN(c2nc(NCc3nc4c(F)c(F)ccc4[nH]3)n3ncc(CC(F)(F)F)c3n2)CC1 [Example 437, N-[(4,5-difluoro-1H-benzimidazol-2-yl)methyl]-2-(4-methylpiperazin-1-yl)-8-(2,2,2-trifluoroethyl) pyrazolo[1,5-a][1,3,5]triazin-4-amine]
7.69 nM	6.18 nM	676	3.39 nM	2.25 nM	28.5 nM	O=C(O)C(F)(F)F.c1ccc2[nH]c(CNc3nc(N4CCOCC4)nc4c(-c5cncs5)cnn34)nc2c1 [Example 441, trifluoroacetic acid-N-[(1H-benzimidazol-2-yl)methyl]-2-(morpholin-4-yl)-8-(1,3-thiazol-5-yl)pyrazolo[1,5-a][1,3,5]triazin-4-amine (1/1)]
2.61 nM	4.68 nM	125	0.738 nM	0.385 nM	6.38 nM	Fc1ccc2[nH]c(CNc3nc(N4CCOCC4)nc4c(-c5cncs5)cnn34)nc2c1F.O=C(O)C(F)(F)F [Example 442, trifluoroacetic acid N-[(4,5-difluoro-1H-benzimidazol-2-yl)methyl]-2-(morpholin-4-yl)-8-(1,3-thiazol-5-yl)pyrazolo[1,5-a][1,3,5]triazin-4-amine]
5.31 nM	4.23 nM	941	2.21 nM	2.22 nM	6.17 nM	Clc1cc2nc(CNc3nc(N4CCOCC4)nc4c(-c5cncs5)cnn34)[nH]c2cc1Cl [Example 443, N-[(5,6-dichloro-1H-benzimidazol-2-yl)methyl]-2-(morpholin-4-yl)-8-(1,3-thiazol-5-yl)pyrazolo[1,5-a][1,3,5]triazin-4-amine]
14.9 nM	7.88 nM	1080	51.5 nM	5.91 nM	69.1 nM	FC(F)Cc1cnn2c(NCc3nc4ccccc4[nH]3)nc(N3CCOCC3)nc12.O=C(O)C(F)(F)F [Example 444, trifluoroacetic acid N-[(1H-benzimidazol-2-yl)methyl]-8-(2,2-difluoroethyl)-2-(morpholin-4-yl)pyrazolo[1,5-a][1,3,5]triazin-4-amine]
